In the supplement of paper PMC10307832:

Key:
MK-2206 = compound: NC1(c2ccc(-c3nc4ccn5c(=O)[nH]nc5c4cc3-c3ccccc3)cc2)CCC1 [MK-2206]; assay: relative viability (nuclei count vs DMSO), 5 days (fraction); higher = more cells survive
Method in brief: (§1)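 Hoechst staining, done together with fixation and permeabilisation, marked nuclei for 4× imaging and MetaXpress counting. This followed 5 days without medium change after lung cancer cell lines, kept overnight at 37 °C in 1536-well plates, were pinned with five library-drug doses (not always all listed) spaced by √10 on vehicle-anchored plates. Viability is the ratio of treated-well to vehicle-well nuclei, expressed as a median across plates. Plates passed only at control CV below 25% with at least one doubling.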

Pictilisib = compound: CS(=O)(=O)N1CCN(Cc2cc3nc(-c4cccc5[nH]ncc45)nc(N4CCOCC4)c3s2)CC1 [Pictilisib]; assay: as above
Method in brief: as §1

| Cell Line | relative viability (MK-2206; 0.01 µM) | relative viability (MK-2206; 0.03162 µM) | relative viability (MK-2206; 0.3162 µM) | relative viability (MK-2206; 1 µM) | relative viability (Pictilisib; 0.02 µM) | relative viability (Pictilisib; 0.06325 µM) | relative viability (Pictilisib; 0.6325 µM) | relative viability (Pictilisib; 1 µM, anchor plate) | relative viability (Pictilisib; 2 µM) |
| --- | --- | --- | --- | --- | --- | --- | --- | --- | --- |
| NCI-H1793 | 0.979 | 1.04 | 0.887 | 0.743 | 0.864 | 0.956 | 0.539 | 0.343 | 0.359 |
| NCI-H1915 | 1 | 1.06 | 0.967 | 0.95 | 1.06 | 1.04 | 0.95 | 0.96 | 0.909 |
| NCI-H1944 | 1.03 | 1.01 | 0.965 | 0.987 | 1.15 | 0.879 | 0.595 | 0.354 | 0.32 |
| NCI-H1975 | 1.06 | 0.931 | 0.913 | 0.728 | 0.98 | 0.804 | 0.605 | 0.307 | 0.292 |
| NCI-H1993 | 0.907 | 0.987 | 0.737 | 0.618 | 0.94 | 0.869 | 0.639 | 0.766 | 0.674 |
| NCI-H2009 | 0.97 | 1.04 | 1.02 | 0.993 | 1.03 | 1.04 | 0.967 | 0.783 | 0.679 |
| NCI-H2023 | 0.972 | 0.946 | 0.757 | 0.605 | 1.04 | 0.831 | 0.55 | 0.262 | 0.18 |
| NCI-H2085 | 0.965 | 1.01 | 0.957 | 0.969 | 0.956 | 0.99 | 0.836 | 0.471 | 0.442 |
| NCI-H2087 | 0.938 | 1.25 | 0.881 | 0.746 | 1.07 | 1.09 | 0.968 | 0.913 | 0.689 |
| NCI-H2126 | 1.04 | 1.03 | 0.913 | 0.92 | 0.999 | 0.992 | 0.806 | 0.52 | 0.57 |
| NCI-H2170 | 0.93 | 1.03 | 0.923 | 0.877 | 1 | 1.02 | 0.86 | 0.329 | 0.556 |
